Like-named read-outs stand apart in the source and are kept apart here.
Key:
[1] = system: barnyardgrass; experiment: Test B pre-/postemergence herbicide test; type: in vivo, Echinochloa crus-galli; settings: for pest or weed control at 500 g/ha: 500 g ai/ha
Procedure, shortened: (§1)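 Formulation: non-phytotoxic solvent mix with surfactant. Timing: preemergence on seed and postemergence on 2–18 cm plants, applied concurrently. Readout after 13–15 d greenhouse: visual 0–100 control rating against controls.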

[2] = system: small flower umbrella sedge; experiment: Test B flooded paddy test; type: in vivo, Cyperus difformis; settings: Cyperus difformis, 336 h, 1000 g ai/ha, scale 0 to 100 (0 no effect, 100 complete control), read-out: Sedge, Umbrella plant response rating
Procedure, shortened: (§2)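 Scale 0–100: zero equals no visible effect, 100 complete control, judged by eye relative to controls. Timing: 13 to 15 days in greenhouse post-treatment. Growth stage at spraying: two leaves (paddy) or one to four leaves, 2–18 cm (postemergence).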

[3] = system: wheat; experiment: Test B postemergence herbicide test; type: in vivo, Triticum aestivum; settings: Triticum aestivum, post-emergence, 336 h, read-out: Wheat plant response rating
Procedure, shortened: (§3)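 Greenhouse test; postemergence application to plants at 1–4 leaves (2–18 cm); paddy species at 2 leaves; evaluated visually vs controls at 13–15 days; scale 0–100 (100 = complete control).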

[4] = system: cocklebur; experiment: Test B pre-/postemergence herbicide test; type: in vivo, Xanthium strumarium; settings: for pest or weed control at 500 g/ha: 500 g ai/ha
Procedure, shortened: as §1

[5] = system: blackgrass; experiment: Test B postemergence herbicide test; type: in vivo, Alopecurus myosuroides; settings: Alopecurus myosuroides, post-emergence, 336 h, read-out: Blackgrass plant response rating
Procedure, shortened: as §2

[6] = system: Surinam grass; experiment: Test B pre-/postemergence herbicide test; type: in vivo, Urochloa decumbens; settings: for pest or weed control at 500 g/ha: 500 g ai/ha
Procedure, shortened: (§4)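 Seeds were planted and treated preemergence with compounds formulated in a non-phytotoxic solvent mixture containing surfactant, while plants at the 1- to 4-leaf stage (2 to 18 cm) received postemergence sprays. Flooded paddy plants were grown to the 2-leaf stage. After 13 to 15 days in a greenhouse, injury was visually rated 0–100 against untreated controls.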

[7] = system: barnyardgrass; experiment: Test B flooded paddy test; type: in vivo, Echinochloa crus-galli; settings: Echinochloa crus-galli, 336 h, 1000 g ai/ha, scale 0 to 100 (0 no effect, 100 complete control), read-out: Barnyardgrass plant response rating
Procedure, shortened: as §2

[8] = system: ducksalad; experiment: Test B flooded paddy test; type: in vivo, Heteranthera limosa; settings: Heteranthera limosa, 336 h, 1000 g ai/ha, scale 0 to 100 (0 no effect, 100 complete control), read-out: Ducksalad plant response rating
Procedure, shortened: as §2

[9] = system: large crabgrass; experiment: Test B pre-/postemergence herbicide test; type: in vivo, Digitaria sanguinalis; settings: for pest or weed control at 500 g/ha: 500 g ai/ha
Procedure, shortened: as §4

[10] = system: corn; experiment: Test B pre-/postemergence herbicide test; type: in vivo, Zea mays
Procedure, shortened: as §4

[11] = system: wild oat; experiment: Test B postemergence herbicide test; type: in vivo, Avena fatua; settings: Avena fatua, post-emergence, 336 h, read-out: Oat, Wild plant response rating
Procedure, shortened: as §3

[12] = system: pigweed; experiment: Test B pre-/postemergence herbicide test; type: in vivo, Amaranthus retroflexus; settings: for pest or weed control at 500 g/ha: 500 g ai/ha
Procedure, shortened: as §4

[13] = system: giant foxtail; experiment: Test B pre-/postemergence herbicide test; type: in vivo, Setaria faberi; settings: for pest or weed control at 500 g/ha: 500 g ai/ha
Procedure, shortened: as §4

[14] = system: rice; experiment: Test B flooded paddy test; type: in vivo, Oryza sativa; settings: Oryza sativa, 336 h, 1000 g ai/ha, scale 0 to 100 (0 no effect, 100 complete control), read-out: Rice plant response rating
Procedure, shortened: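 Visual ratings, 0 (no effect) to 100 (complete control), made versus controls after 13–15 d greenhouse. Paddy plants treated at 2-leaf stage; postemergence plants at 1- to 4-leaf stage, 2–18 cm tall.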

[15] = system: velvetleaf; experiment: Test B pre-/postemergence herbicide test; type: in vivo, Abutilon theophrasti
Procedure, shortened: as §4

[16] = 125 g ai/ha, 0 is no effect, 100 is complete control, preemergence
[17] = 125 g ai/ha, visual rating, scale 0 (no effect) to 100 (complete control)
[18] = postemergence, 500 g ai/ha, scale 0 to 100, 0 is no effect, 100 is complete control

With `CCNC(=O)c1ccc(F)c(NC(=O)C2CN(C(C)(C)C)N=C2CC)c1` (centres unmarked) [Compound 336, 1-(1,1-dimethylethyl)-3-ethyl-N-[5-[(ethylamino)carbonyl]-2-fluorophenyl]-4,5-dihydro-1H-pyrazole-4-carboxamide] the “Plant response rating (0 to 100 scale), Barnyardgrass” value [1, 16] was 100, the pest or weed control at 125 g/ha ([1]; Echinochloa crus-galli, post-emergence, 125 g ai/ha, visual rating, scale 0 (no effect) to 100 (complete control), read-out: Barnyardgrass plant response rating) was 10% and the pest or weed control at 500 g/ha ([1]; Echinochloa crus-galli, post-emergence, postemergence, scale 0 to 100, 0 is no effect, 100 is complete control, read-out: Barnyardgrass plant response rating) was 30%. It also gave a pest or weed control at 500 g/ha ([1]; Echinochloa crus-galli, pre-emergence, visual rating, 0 = no effect, 100 = complete control, read-out: Plant response rating, Barnyardgrass) of 100%, a pest or weed control at 1000 g/ha [2] of 80% and a plant injury at 125 g/ha [3, 17] of 0%. The plant injury at 500 g/ha [3, 18] was 10%, the “Plant response rating (0 to 100 scale), Cocklebur” value [4, 16] was 10 and the pest or weed control at 125 g/ha ([4]; Xanthium strumarium, post-emergence, 125 g ai/ha, visual rating, scale 0 (no effect) to 100 (complete control), read-out: Cocklebur plant response rating) was 0%. For the same molecule, the pest or weed control at 500 g/ha ([4]; Xanthium strumarium, post-emergence, postemergence, scale 0 to 100, 0 is no effect, 100 is complete control, read-out: Cocklebur plant response rating) was 50%, the pest or weed control at 500 g/ha ([4]; Xanthium strumarium, pre-emergence, visual rating, 0 = no effect, 100 = complete control, read-out: Plant response rating, Cocklebur) was 40% and the pest or weed control at 125 g/ha [5, 17] was 10%. For the same molecule, the pest or weed control at 500 g/ha [5, 18] was 20%, the “Plant response rating (0 to 100 scale), Surinam Grass” value [6, 16] was 90 and the pest or weed control at 125 g/ha ([6]; Urochloa decumbens, post-emergence, 125 g ai/ha, visual rating, scale 0 (no effect) to 100 (complete control), read-out: Surinam Grass plant response rating) was 20%. The pest or weed control at 500 g/ha ([6]; Urochloa decumbens, post-emergence, postemergence, scale 0 to 100, 0 is no effect, 100 is complete control, read-out: Surinam Grass plant response rating) was 20%, the pest or weed control at 500 g/ha ([6]; Urochloa decumbens, pre-emergence, visual rating, 0 = no effect, 100 = complete control, read-out: Plant response rating, Surinam Grass) was 100% and the pest or weed control at 1000 g/ha [7] was 90%. The pest or weed control at 1000 g/ha [8] was 90%, the “Plant response rating (0 to 100 scale), Crabgrass, Large” value [9, 16] was 90 and the pest or weed control at 125 g/ha ([9]; Digitaria sanguinalis, post-emergence, 125 g ai/ha, visual rating, scale 0 (no effect) to 100 (complete control), read-out: Crabgrass, Large plant response rating) was 20%. For the same molecule, the pest or weed control at 500 g/ha ([9]; Digitaria sanguinalis, post-emergence, postemergence, scale 0 to 100, 0 is no effect, 100 is complete control, read-out: Crabgrass, Large plant response rating) was 50%, the pest or weed control at 500 g/ha ([9]; Digitaria sanguinalis, pre-emergence, visual rating, 0 = no effect, 100 = complete control, read-out: Plant response rating, Crabgrass, Large) was 100% and the “Plant response rating (0 to 100 scale), Corn” value [10, 16] was 50. For the same molecule, the plant injury at 125 g/ha ([10]; Zea mays, post-emergence, 125 g ai/ha, visual rating, scale 0 (no effect) to 100 (complete control), read-out: Corn plant response rating) was 10%, the plant injury at 500 g/ha ([10]; Zea mays, post-emergence, postemergence, 500 g ai/ha, scale 0 to 100, 0 is no effect, 100 is complete control, read-out: Corn plant response rating) was 20% and the Corn plant response rating (crop injury, 0 = no effect, 100 = complete kill) at 500 g/ha ([10]; Zea mays, pre-emergence, 500 g ai/ha, visual rating, 0 = no effect, 100 = complete control) was 100%. For the same molecule, the pest or weed control at 125 g/ha [11, 17] was 10%, the pest or weed control at 500 g/ha [11, 18] was 20% and the “Plant response rating (0 to 100 scale), Pigweed” value [12, 16] was 100. For the same molecule, the pest or weed control at 125 g/ha ([12]; Amaranthus retroflexus, post-emergence, 336 h, 125 g ai/ha, visual rating, scale 0 (no effect) to 100 (complete control), read-out: Pigweed plant response rating) was 60%, the pest or weed control at 500 g/ha ([12]; Amaranthus retroflexus, post-emergence, 336 h, postemergence, scale 0 to 100, 0 is no effect, 100 is complete control, read-out: Pigweed plant response rating) was 70% and the pest or weed control at 500 g/ha ([12]; Amaranthus retroflexus, pre-emergence, 336 h, visual rating, 0 = no effect, 100 = complete control, read-out: Plant response rating, Pigweed) was 100%. For the same molecule, the “Plant response rating (0 to 100 scale), Foxtail, Giant” value [13, 16] was 60, the pest or weed control at 125 g/ha ([13]; Setaria faberi, post-emergence, 336 h, 125 g ai/ha, visual rating, scale 0 (no effect) to 100 (complete control), read-out: Foxtail, Giant plant response rating) was 20% and the pest or weed control at 500 g/ha ([13]; Setaria faberi, post-emergence, 336 h, postemergence, scale 0 to 100, 0 is no effect, 100 is complete control, read-out: Foxtail, Giant plant response rating) was 40%. The pest or weed control at 500 g/ha ([13]; Setaria faberi, pre-emergence, 336 h, visual rating, 0 = no effect, 100 = complete control, read-out: Plant response rating, Foxtail, Giant) was 100%, the plant injury at 1000 g/ha [14] was 80% and the “Plant response rating (0 to 100 scale), Velvetleaf” value [15, 16] was 30. For the same molecule, the pest or weed control at 125 g/ha ([15]; Abutilon theophrasti, post-emergence, 336 h, 125 g ai/ha, visual rating, scale 0 (no effect) to 100 (complete control), read-out: Velvetleaf plant response rating) was 20% and the pest or weed control at 500 g/ha ([15]; Abutilon theophrasti, post-emergence, 336 h, postemergence, 500 g ai/ha, scale 0 to 100, 0 is no effect, 100 is complete control, read-out: Velvetleaf plant response rating) was 30%.

Source: patent US20060069132A1, “Azolecarboxamide herbicides” (priority 2004, published 2006)
